From paper PMC8026479 (Cancer Chemotherapy and Pharmacology, 2021)
Where two headings read alike, the source gives them in different places.

Tests used:
[1] = test system: chemotherapy-induced myelosuppression in ES-SCLC patients; experiment: Study G1T28-02 Part 1 DLTs and myelosuppression endpoints (with E/P); type: in vivo, human
From the text: G1T28-02 (NCT02499770) was a multicentre Phase Ib/IIa study in patients with newly diagnosed ES-SCLC [5]. Eligible patients were aged ≥ 18 years and had histologically or cytologically confirmed ES-SCLC, measurable disease per Response Evaluation Criteria in Solid Tumors (RECIST) version 1.1, an Eastern Cooperative Oncology Group (ECOG) performance status of 0–2, and adequate organ function. […] In the dose-finding Part 1 portion, blood samples for PK analysis were collected at prespecified time points on Cycle 1 Day 1 and Cycle 1 Day 3 (200 mg/m^2 cohort: all patients; 240 mg/m^2 cohort: optional).

[2] = Study G1T28-03 Part 1 plasma PK (with topotecan); type: in vivo, human; settings: for Cmax / T1/2 / AUC(0-inf) / clearance / Vd / half-life: geometric mean; for Vd: read-out: Vz; for Tmax: range
From the text: G1T28-03 (NCT02514447) was a multicentre Phase Ib/IIa study in patients with previously treated ES-SCLC [14]. […] Part 1 was a Phase Ib, open-label, dose-finding portion. Part 2 was a Phase IIa, randomized, double-blind, placebo-controlled portion. […] In Part 1 of the study, blood samples for PK analysis were collected at prespecified time points on Cycle 1 Day 1 and Cycle 1 Day 4 for all patients.

[3] = G1T28-02 Part 1, 200 mg/m2 + E/P (n = 10)
[4] = G1T28-02 Part 1, 240 mg/m2 + E/P (n = 9)
[5] = G1T28-02 Part 1, trilaciclib total (n = 19)
[6] = ES-SCLC + topotecan, 280 mg/m2, Cycle 1 Day 1 (n = 7)
[7] = human, plasma, 200 mg/m2, ES-SCLC + topotecan, 200 mg/m2, Cycle 1 Day 4 (n = 9)
[8] = human, plasma, 280 mg/m2, ES-SCLC + topotecan, 280 mg/m2, Cycle 1 Day 1 (n = 7)
[9] = human, plasma, 280 mg/m2, ES-SCLC + topotecan, 280 mg/m2, Cycle 1 Day 4 (n = 7)
[10] = human, plasma, ES-SCLC + topotecan, 200 mg/m2, Cycle 1 Day 1 (n = 10)
[11] = human, plasma, ES-SCLC + topotecan, 240 mg/m2, Cycle 1 Day 1 (n = 14)
[12] = human, plasma, ES-SCLC + topotecan, 240 mg/m2, Cycle 1 Day 4 (n = 15)

CN1CCN(c2ccc(Nc3ncc4cc5n(c4n3)C3(CCCCC3)CNC5=O)nc2)CC1 [trilaciclib]
DSN, median (SD) (footnote a) [1, 3]: 6 (5.7) days
Mean ANC Nadir in Cycle 1 [1, 3]: 1.198e+09 L⁻¹
Occurrence of ESA administrations [1, 3]: 2 (20.0) n (%)
Occurrence of FN [1, 3]: 0 n (%)
Occurrence of G-CSF administration [1, 3]: 5 (50.0) n (%)
Occurrence of Grade 3 or 4 hematologic laboratory abnormalities [1, 3]: 4 (40.0) n (%)
Occurrence of IV antibiotic use [1, 3]: 4 (40.0) n (%)
Occurrence of RBC transfusions on/after Week 5 [1, 3]: 4 (40.0) n (%)
Occurrence of SN [1, 3]: 4 (40) n (%)
Occurrence of infection SAEs [1, 3]: 2 (20.0) n (%)
Occurrence of platelet transfusions [1, 3]: 1 (10.0) n (%)
Occurrence of pulmonary infection SAEs [1, 3]: 1 (10.0) n (%)
Patients with any event for MAHE [1, 3]: 6 (60.0) n (%)
Time to first MAHE, median [1, 3]: 2.6 months
DLTs reported ([1]; G1T28-02 Part 1, 200 mg/m2 + E/P, Grade 4 thrombocytopenia, and Grade 2 neutropenia resulting in Cycle 2 delay): Two DLTs
Mean ANC Nadir in Cycle 1 [1, 4]: 1.653e+09 L⁻¹
Occurrence of ESA administrations [1, 4]: 0 n (%)
Occurrence of FN [1, 4]: 0 n (%)
Occurrence of G-CSF administration [1, 4]: 3 (33.3) n (%)
Occurrence of Grade 3 or 4 hematologic laboratory abnormalities [1, 4]: 1 (11.1) n (%)
Occurrence of IV antibiotic use [1, 4]: 1 (11.1) n (%)
Occurrence of RBC transfusions on/after Week 5 [1, 4]: 1 (11.1) n (%)
Occurrence of SN [1, 4]: 0 n (%)
Occurrence of infection SAEs [1, 4]: 1 (11.1) n (%)
Occurrence of platelet transfusions [1, 4]: 0 n (%)
Occurrence of pulmonary infection SAEs [1, 4]: 0 n (%)
Patients with any event for MAHE [1, 4]: 6 (66.7) n (%)
Time to first MAHE, median [1, 4]: 3.0 months
DLTs reported ([1]; G1T28-02 Part 1, 240 mg/m2 + E/P, Grade 2 neutropenia resulting in Cycle 2 delay): one
DSN, median (SD) (footnote a) [1, 5]: 6 (5.7) days
Mean ANC Nadir in Cycle 1 [1, 5]: 1.414e+09 L⁻¹
Occurrence of ESA administrations [1, 5]: 2 (10.5) n (%)
Occurrence of FN [1, 5]: 0 n (%)
Occurrence of G-CSF administration [1, 5]: 8 (42.1) n (%)
Occurrence of Grade 3 or 4 hematologic laboratory abnormalities [1, 5]: 5 (26.3) n (%)
Occurrence of IV antibiotic use [1, 5]: 5 (26.3) n (%)
Occurrence of RBC transfusions on/after Week 5 [1, 5]: 5 (26.3) n (%)
Occurrence of infection SAEs [1, 5]: 3 (15.8) n (%)
Occurrence of platelet transfusions [1, 5]: 1 (5.3) n (%)
Occurrence of pulmonary infection SAEs [1, 5]: 1 (5.3) n (%)
Patients with any event for MAHE [1, 5]: 12 (63.2) n (%)
Time to first MAHE, median [1, 5]: 2.6 months
Cmax ([2]; ES-SCLC + topotecan, 200 mg/m2, Cycle 1 Day 4 (n = 9)): 1060 ng/mL
T1/2 ([2]; ES-SCLC + topotecan, 240 mg/m2, Cycle 1 Day 1 (n = 14)): 407 min
Cmax [2, 6]: 1110 ng/mL
T1/2 [2, 6]: 443 min
accumulation on repeated daily dosing ([2]; G1T28-03 Part 1, 280 mg/m2, Day 1 vs Day 4, not observed at lower dose levels): resulted in drug accumulation
AUC(0-inf) ([2]; human, plasma, 200 mg/m2, ES-SCLC + topotecan, 200 mg/m2, Cycle 1 Day 1 (n = 10), read-out: AUC0-inf): 2410 ng·h/mL
clearance [2, 7]: 2850 mL/min
Vd [2, 7]: 2120 L
Tmax [2, 7]: 22.8 to 34.8 min
AUC(0-inf) ([2]; human, plasma, 240 mg/m2, ES-SCLC + topotecan, 240 mg/m2, Cycle 1 Day 1 (n = 14), read-out: AUC0-inf): 2910 ng·h/mL
Tmax ([2]; human, plasma, 240 mg/m2, ES-SCLC + topotecan, 240 mg/m2, Cycle 1 Day 1 (n = 14)): 24 to 42 min
AUC(0-inf) ([2]; human, plasma, 240 mg/m2, ES-SCLC + topotecan, 240 mg/m2, Cycle 1 Day 4 (n = 15), read-out: AUCtau (AUC0-inf, footnote a)): 2880 ng·h/mL
Vd ([2]; human, plasma, 240 mg/m2, ES-SCLC + topotecan, 240 mg/m2, Cycle 1 Day 4 (n = 15)): 1730 L
clearance [2, 8]: 2680 mL/min
AUC(0-inf) ([2]; human, plasma, 280 mg/m2, ES-SCLC + topotecan, 280 mg/m2, Cycle 1 Day 1 (n = 7), read-out: AUC0-inf): 3490 ng·h/mL
Vd [2, 8]: 1720 L
Tmax [2, 8]: 25.2 to 37.2 min
clearance [2, 9]: 2080 mL/min
AUC(0-inf) ([2]; human, plasma, 280 mg/m2, ES-SCLC + topotecan, 280 mg/m2, Cycle 1 Day 4 (n = 7), read-out: AUCtau (AUC0-inf, footnote a)): 4520 ng·h/mL
Vd [2, 9]: 1530 L
Tmax [2, 9]: 25.2 to 33 min
clearance [2, 10]: 2750 mL/min
half-life [2, 10]: 415 min
Vd [2, 10]: 1650 L
Tmax [2, 10]: 25.2 to 40.2 min
clearance [2, 11]: 2420 mL/min
Cmax ([2]; human, plasma, ES-SCLC + topotecan, 240 mg/m2, Cycle 1 Day 1 (n = 14), read-out: Cmax): 1270 ng/mL
Vd [2, 11]: 1430 L
Tmax [2, 12]: 22.8 to 90 min
half-life ([2]; human, plasma, ES-SCLC + topotecan, 200 mg/m2, Cycle 1 Day 4 (n = 9)): 514 min
clearance [2, 12]: 2470 mL/min
Cmax ([2]; human, plasma, ES-SCLC + topotecan, 240 mg/m2, Cycle 1 Day 4 (n = 15), read-out: Cmax): 1220 ng/mL
half-life ([2]; human, plasma, ES-SCLC + topotecan, 280 mg/m2, Cycle 1 Day 4 (n = 7)): 512 min
Cmax ([2]; human, plasma, ES-SCLC + topotecan, 280 mg/m2, Cycle 1 Day 4 (n = 7), read-out: Cmax): 2220 ng/mL
